This is an account of results in ChEMBL document CHEMBL1201862, “PubChem BioAssay data set” (2004).

Among the test systems are A498; ACHN; CCRF-CEM; COLO 205; EKVX; HCT-116; HL-60; IGROV-1; MOLT-4; Malme-3M; NCI-H522; SF-295; SK-MEL-5; SK-OV-3; SNB-19; SNB-75; SW-620; TK-10; CAKI-1.
Assay in all cases: NCI anticancer screen, dose series, 48 h

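Step 1: Grow cells in 96-well plates. Step 2: Expose to compound for 48 hours at 5 concentrations. Step 3: Interpolate endpoints linearly; if unreached, use highest concentration. At the GI50, growth is halved.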 Active and inactive are the calls of the source. Rule as the data show it: active = GI50 up to about 1.1 µM and inactive = higher.

For `CCOC(=O)COc1ccc(OCC(=O)OCC)c2c1C(=O)CCCC2=O`, the GI50 was 0.281 µM (active) in the test with A498; > 100 µM (inactive) in the test with ACHN; > 100 µM (inactive) in the test on CCRF-CEM; > 100 µM (inactive) in the test with COLO 205; > 100 µM (inactive) with EKVX; > 100 µM (inactive) in the test with HCT-116. Moreover, the GI50 in the test on HL-60 is > 100 µM (inactive); with IGROV-1 it was 3.13 µM (inactive); in the test with MOLT-4, > 100 µM (inactive); in the test on Malme-3M, > 100 µM (inactive); in the test with NCI-H522, > 100 µM (inactive); with SF-295 it was > 100 µM (inactive). Moreover, the GI50 in the test on SK-MEL-5 is 0.26 µM (active); in the test with SK-OV-3 it was > 100 µM (inactive); with SNB-19, > 100 µM (inactive); in the test on SNB-75 it was > 100 µM (inactive); with SW-620, > 100 µM (inactive); with TK-10, > 100 µM (inactive).

Take `CC(=O)C1=NN(c2ccccc2)C2(S1)SC(c1ccccc1)(c1ccccc1)c1ccccc12` (stereo not drawn): the GI50 was 89.7 µM (inactive) in the test with A498; 42.3 µM (inactive) in the test with ACHN; 49.3 µM (inactive) in the test with CCRF-CEM; > 100 µM (inactive) in the test on COLO 205; > 100 µM (inactive) in the test on EKVX; 24.4 µM (inactive) in the test with HCT-116. The GI50 was 19.9 µM (inactive) in the test on HL-60; 33.1 µM (inactive) in the test on IGROV-1; 27.8 µM (inactive) in the test on MOLT-4; 37.4 µM (inactive) in the test on Malme-3M; 22.9 µM (inactive) with NCI-H522; 26.9 µM (inactive) in the test on SF-295. The GI50 was 30.8 µM (inactive) in the test with SK-OV-3; 62.2 µM (inactive) in the test with SNB-19; 19.3 µM (inactive) in the test with SNB-75; 99.1 µM (inactive) in the test with SW-620; 63.7 µM (inactive) in the test on TK-10.

Regarding `COc1c(C)n(CCO)ccc1=O`, the GI50 in the test with A498, with ACHN, in the test with CAKI-1, in the test with CCRF-CEM, in the test with COLO 205 and in the test on EKVX was > 100 µM (inactive) throughout. Also, the GI50 in the test on HCT-116, in the test on HL-60, in the test with MOLT-4, in the test on Malme-3M, in the test on NCI-H522 and with SF-295 was > 100 µM (inactive) in each case. In addition, the GI50 in the test on SK-MEL-5, with SK-OV-3, in the test on SNB-19, in the test on SNB-75, in the test with SW-620 and with TK-10 was > 100 µM (inactive) each time.

Consider `O=C1C=C(Nc2ccc(Cl)cc2Cl)c2ccccc2C1=O`, for which the GI50 in the test with A498 is > 100 µM (inactive); in the test on ACHN, 36.2 µM (inactive); in the test on CAKI-1, > 100 µM (inactive); in the test with CCRF-CEM it was 30.8 µM (inactive); with COLO 205, > 100 µM (inactive); with EKVX, > 100 µM (inactive). The GI50 is 35 µM (inactive) in the test with HCT-116; 28.7 µM (inactive) with HL-60; 50.9 µM (inactive) with IGROV-1; 88.1 µM (inactive) with MOLT-4; 24.9 µM (inactive) in the test with Malme-3M; 29.8 µM (inactive) with NCI-H522. The GI50 was 53.5 µM (inactive) with SF-295; 99.1 µM (inactive) in the test on SK-OV-3; 39.3 µM (inactive) in the test with SNB-19; 22.4 µM (inactive) with SNB-75; 39.5 µM (inactive) in the test on SW-620; 24.7 µM (inactive) with TK-10.

`Brc1ccc(C[P+]2(c3ccccc3)CCCCC2)cc1.[O-][Cl+3]([O-])([O-])[O-]`: the GI50 with A498 is > 100 µM (inactive); in the test with ACHN, > 100 µM (inactive); with CCRF-CEM it was 82 µM (inactive); in the test on COLO 205, 20.5 µM (inactive); with EKVX it was > 100 µM (inactive); in the test on HCT-116, 68.7 µM (inactive). Moreover, the GI50 is 20.4 µM (inactive) with HL-60; 81.3 µM (inactive) with IGROV-1; > 100 µM (inactive) with MOLT-4; 58.5 µM (inactive) in the test with Malme-3M; 19 µM (inactive) with NCI-H522; > 100 µM (inactive) in the test on SF-295. Moreover, the GI50 was 17.5 µM (inactive) with SK-MEL-5; > 100 µM (inactive) with SK-OV-3; 61.4 µM (inactive) with SNB-19; 26.2 µM (inactive) in the test on SNB-75; 79.1 µM (inactive) in the test on SW-620; 99.5 µM (inactive) in the test with TK-10.

As to `CCCCCCCCCCCCCC(=O)NCO`, the GI50 in the test with A498, in the test with ACHN, with CCRF-CEM, in the test on COLO 205, in the test on EKVX and in the test with HCT-116 was > 100 µM (inactive) throughout. Further, the GI50 in the test with HL-60 was > 100 µM (inactive); in the test on IGROV-1, > 100 µM (inactive); with Malme-3M, > 100 µM (inactive); in the test with NCI-H522, 86.3 µM (inactive); in the test on SF-295, > 100 µM (inactive); in the test with SK-MEL-5, > 100 µM (inactive). Moreover, the GI50 in the test with SK-OV-3, with SNB-19, with SNB-75, in the test with SW-620 and in the test on TK-10 was > 100 µM (inactive) each time.

Regarding `CCOC(=O)/N=c1/nc(N(C)C)ss1`, the GI50 in the test on A498, in the test with ACHN, in the test on CAKI-1, with CCRF-CEM, in the test with EKVX and in the test with HCT-116 was > 100 µM (inactive) throughout. In addition, the GI50 with HL-60, in the test with IGROV-1, in the test with MOLT-4, in the test with Malme-3M, in the test on NCI-H522 and in the test with SF-295 was > 100 µM (inactive) throughout. Besides, the GI50 in the test with SK-MEL-5, in the test with SK-OV-3, in the test with SNB-19, in the test with SNB-75, in the test on SW-620 and in the test with TK-10 was > 100 µM (inactive) in each case.

For `Clc1ccc(OCc2nnc3n2N=C(c2ccccc2)CS3)c(Cl)c1`, the GI50 with A498 was 2.24 µM (inactive); in the test with ACHN, 29 µM (inactive); in the test with CAKI-1 it was 7.33 µM (inactive); in the test with CCRF-CEM, 4.03 µM (inactive); in the test on HCT-116 it was 2.67 µM (inactive); with HL-60, 3.7 µM (inactive). The GI50 is 6.4 µM (inactive) in the test with IGROV-1; 3.23 µM (inactive) with MOLT-4; > 100 µM (inactive) in the test on Malme-3M; 3.81 µM (inactive) with NCI-H522; 4.35 µM (inactive) with SF-295; 8.28 µM (inactive) in the test with SK-MEL-5. For the same molecule, the GI50 with SK-OV-3 was > 100 µM (inactive); with SNB-19, 3.78 µM (inactive); with SNB-75, 3.02 µM (inactive); with SW-620, > 100 µM (inactive); with TK-10 it was 7.98 µM (inactive).

Turning to `C=CCc1ccc(Oc2cc(CC=C)c3c(c2O)O[C@@H](CO)[C@H]3c2ccc(O)c(-c3cc(CC=C)ccc3O)c2)cc1`, the GI50 was 80 µM (inactive) with A498; 67 µM (inactive) in the test with ACHN; > 100 µM (inactive) in the test with CAKI-1; 20.5 µM (inactive) in the test on CCRF-CEM; 52 µM (inactive) with COLO 205; 46.7 µM (inactive) with EKVX. Moreover, the GI50 is 61.9 µM (inactive) in the test on HCT-116; 23.8 µM (inactive) with HL-60; 32.7 µM (inactive) in the test with IGROV-1; > 100 µM (inactive) with Malme-3M; 18.3 µM (inactive) with NCI-H522; 67.1 µM (inactive) in the test on SF-295. The GI50 was 87.3 µM (inactive) with SK-MEL-5; > 100 µM (inactive) with SK-OV-3; 39.5 µM (inactive) in the test with SNB-19; > 100 µM (inactive) in the test on SNB-75; 33.9 µM (inactive) in the test on SW-620; > 100 µM (inactive) in the test with TK-10.

Take `COc1ccc(N2C(=O)C3c4[nH]c5ccccc5c4C4CC(C)(C)CC(C)(C)C4C3C2=O)cc1` (stereo not drawn): the GI50 in the test with A498 is 14.5 µM (inactive); in the test on ACHN it was 14.9 µM (inactive); in the test on CCRF-CEM, 69.7 µM (inactive); in the test with COLO 205, 8.81 µM (inactive); in the test with EKVX, 15.9 µM (inactive); in the test with HCT-116, 13.5 µM (inactive). For the same molecule, the GI50 in the test on HL-60 is 42.5 µM (inactive); in the test on IGROV-1, 22.9 µM (inactive); with MOLT-4, 14.4 µM (inactive); in the test on Malme-3M it was 16.4 µM (inactive); in the test with NCI-H522 it was 17.2 µM (inactive); in the test on SF-295, 8.05 µM (inactive). Moreover, the GI50 in the test on SK-MEL-5 is 19.4 µM (inactive); in the test with SK-OV-3, 17.3 µM (inactive); in the test on SNB-19, 23.7 µM (inactive); in the test on SNB-75, 16.8 µM (inactive); in the test on SW-620 it was 20 µM (inactive).

For the molecule `O=C1/C(=C/c2ccc(Cl)cc2)COc2ccc(Br)cc21`, the GI50 is > 100 µM (inactive) in the test with A498; > 100 µM (inactive) in the test with ACHN; 61.1 µM (inactive) in the test with CCRF-CEM; > 100 µM (inactive) with COLO 205; > 100 µM (inactive) with EKVX; > 100 µM (inactive) with HCT-116. The GI50 was > 100 µM (inactive) in the test on HL-60; > 100 µM (inactive) in the test with IGROV-1; > 100 µM (inactive) with MOLT-4; > 100 µM (inactive) in the test on Malme-3M; 69.7 µM (inactive) in the test with NCI-H522; > 100 µM (inactive) in the test with SF-295. The GI50 with SK-MEL-5, with SK-OV-3, in the test with SNB-75, in the test on SW-620 and in the test on TK-10 was > 100 µM (inactive) each time.
